From patent US20220241310A1, “THIARABINE- AND THIARABINE PRODRUG-BASED TREATMENTS” (Southern Research Institute, priority 2019, published 2022)

How the values were obtained:
MC38^hPDL-1 = assay: IC50 in MC38^hPDL-1 tumor cell model; assay type: cell-based; conditions: Mus musculus, MC38-hPD-L1; humanized murine colorectal model; read-out: MC38^huPD=L1 (IC50 μM)
Text: (§1) Representative IC50 values of thiarabine and related prodrugs tested in two tumor cell models, a humanized murine colorectal model MC38^hPDL-1 and a human ovarian cancer model OVCAR-3, are shown in Table 1 below.

[1] = tested on: MC38^hPDL-1 colon tumor cells; assay: MC38^hPDL-1 tumor response to mono- and combination-therapy in mice; assay type: in vivo, C57BL/6^hPD-1/hPD-L1 mice; conditions: combination with Keytruda; subcutaneous MC38^hPDL-1 tumor; FIG. 1A/1B
Method: A total of 32 C57BL/6^hPD-1/hPD-L1 mice, male and female, were injected subcutaneously with five hundred thousand (5×10^5) MC38^hPDL-1 colon tumor cells in the right flank at a volume of 0.1 mL. Innoculation day was marked as Day 0. Tumor measurements were taken biweekly for the duration of the study. Tumor weights (mg) were calculated using the equation for an ellipsoid sphere: (l×w^2)/2=mm^3, where l and w refer to the larger and smaller dimensions collected at each measurement and assuming unit density (1 mm^3=1 mg). Target tumor weight for initiation of treatment was approximately 75 to 144 mg for a target group mean tumor weight of approximately 110 mg. The animals on study were randomly assigned to four groups to contain two males and six females. Dosing began on day 13 of the study. Re-challenge of MC38^1-1 in the opposite flank of tumor-free mice from the Keytruda and combination groups occurred on day 31 of the study and mice were monitored for tumor growth for the duration of the study.
Thiarabine: The 500 mg vial was reconstituted with 4.6 mL of saline (0.9% Sodium chloride) to yield a 100 mg/mL stock solution. Each day of dosing, the 100 mg/mL solution was diluted to […] with saline. The dose concentration was 10 mL/kg with a dose volume of 0.1 mL for dose of 30 mg/kg. Mice were dosed IP Q2Dx10. […]

OVCAR-3 = assay: IC50 in OVCAR-3 tumor cell model; assay type: cell-based; conditions: human ovarian cancer model
Text: as §1

Row | SMILES | IC50 (MC38^hPDL-1) | tumor volume over time [1] | IC50 (OVCAR-3)
1 | CC(C)OC(=O)[C@H](C)NP(=O)(OC[C@H]1S[C@@H](n2ccc(N)nc2=O)[C@@H](O)[C@@H]1O)Oc1ccccc1 (single isomer, unassigned) [SRI-41302] | 15.8 µM | total tumor regression | 1.25 µM
2 | CCC(CC)COC(=O)[C@H](C)NP(=O)(OC[C@H]1S[C@@H](n2ccc(N)nc2=O)[C@@H](O)[C@@H]1O)Oc1ccccc1 (stereo partly drawn) [SRI-44340, ethylbutyl ((((2R,3S,4S,5R)-5-(4-amino-2-oxopyrimidin-1(2H)-yl)-3,4-dihydroxytetrahydrothiophen-2-yl)methoxy)(phenoxy)phosphoryl)-1-alaninate] | – | – | 0.65 µM
3 | Nc1ccn([C@@H]2S[C@H](CO)[C@@H](O)[C@@H]2O)c(=O)n1 [Thiarabine] | 2.71 µM | total tumor regression | 1.13 µM
